Earlier results on eleven compounds are cited in patent US20100192311A1, “METHOD FOR PERFUMING FABRICS” (priority 2009, published 2010).

The conditions of data set [1]: in water.
The test system of data set [2] is typical Gram negative and positive bacteria, fungi and yeasts. The note with it: level from about 0.001% to about 0.5% by weight of the usage composition.

Each structure is given as a SMILES string. Counter-ions that a name gives are not always drawn.

In the case of `OCc1ccccc1` [benzyl alcohol], in data set [1], the water solubility entry is listed as “about 4%”.
Turning to `[Na+].[O-][n+]1ccccc1[S-]` [sodium pyrithione], the water solubility result in data set [1] was “about 50%”.
With `O=[N+]([O-])C1(Br)COCOC1` [Bronidox L, 5-bromo-5-nitro-1,3-dioxane], the water solubility entry in data set [1] is reported as “about 0.46%”.
With `Cn1sc2c(c1=O)CCC2` [Promexal, 2-methyl-4,5-trimethylene-4-isothiazolin-3-one], in data set [2], the “effective against typical Gram negative and positive bacteria, fungi and yeasts” value is recorded as “effective”.
Regarding `OCCc1ccccc1` [Phenyl Ethyl Alcohol, 2-phenylethanol], in data set [1], the water solubility entry is “about 2%”.
Take `OCCOc1ccccc1` [2-phenoxyethanol]: the water solubility result in data set [1] was “about 2.67%”.
Turning to `[H]/N=C(\N/C(=N/[H])NCCCCCCNC(=N)NC(=N)Nc1ccc(Cl)cc1)Nc1ccc(Cl)cc1` [chlorhexidine diacetate salt, 1,1′-hexamethylene bis(5-(p-chlorophenyl)biguanide), reference compound], the water solubility result in data set [1] is recorded as “about 1.8%”.
Take `O=c1[nH]sc2ccccc12` [Proxel, 1,2-benzisothiazolin-3-one]: the “effective against typical Gram negative and positive bacteria, fungi and yeasts” value in data set [2] is recorded as “effective”.
Regarding `[H]/N=C(\N/C(=N/[H])NCCCCCCNC(=N)NC(=N)Nc1ccc(Cl)cc1)Nc1ccc(Cl)cc1` [chlorhexidine digluconate salt, 1,1′-hexamethylene bis(5-(p-chlorophenyl)biguanide), reference compound], the water solubility entry in data set [1] is on record as “about 70%”.
As to `CC(C)(O)C(Cl)(Cl)Cl` [chlorobutanol, 1,1,1-Trichloro-2-methylpropan-2-ol], the water solubility result in data set [1] is listed as “about 0.8%”.
In the case of `CC1(C)C(=O)N(CO)C(=O)N1CO` [DMDM hydantoin, 1,3-bis(hydroxymethyl)-5,5-dimethyl-2,4-imidazolidinedione], the water solubility entry in data set [1] is “more than 50%”.
